The record followed here is patent publication US10065970B2 (Genentech, Inc., priority 2015, dated 2018).

The target in this test is PI3Kα (alpha) (Homo sapiens (Human), UniProt P42336). The test is described as follows: p110α (alpha) PI3K Binding Assay (ADP-Glo lipid kinase reaction). It counts as biochemical. The settings on record: PI3K alpha 0.2 nM, ATP 40 μM, PIP2:3PS 50 μM, 120 min, room temperature; Ki by Morrison Equation; read-out: PI3Kα-(alpha) ATP (Ki) micromolar. An outline of the steps: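 Enzyme with PIP2:3PS lipid substrate and ATP/MgCl2 in 50 mM HEPES, 50 mM NaCl, 3 mM MgCl2, 0.01% BSA, 1% DMSO, 120 min at room temperature. ADP formed detected by ADP-Glo luminescence. Ki from 10-point dose-response curves via the Morrison equation.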
PI3Kα (alpha), sequence (P42336 whole entry): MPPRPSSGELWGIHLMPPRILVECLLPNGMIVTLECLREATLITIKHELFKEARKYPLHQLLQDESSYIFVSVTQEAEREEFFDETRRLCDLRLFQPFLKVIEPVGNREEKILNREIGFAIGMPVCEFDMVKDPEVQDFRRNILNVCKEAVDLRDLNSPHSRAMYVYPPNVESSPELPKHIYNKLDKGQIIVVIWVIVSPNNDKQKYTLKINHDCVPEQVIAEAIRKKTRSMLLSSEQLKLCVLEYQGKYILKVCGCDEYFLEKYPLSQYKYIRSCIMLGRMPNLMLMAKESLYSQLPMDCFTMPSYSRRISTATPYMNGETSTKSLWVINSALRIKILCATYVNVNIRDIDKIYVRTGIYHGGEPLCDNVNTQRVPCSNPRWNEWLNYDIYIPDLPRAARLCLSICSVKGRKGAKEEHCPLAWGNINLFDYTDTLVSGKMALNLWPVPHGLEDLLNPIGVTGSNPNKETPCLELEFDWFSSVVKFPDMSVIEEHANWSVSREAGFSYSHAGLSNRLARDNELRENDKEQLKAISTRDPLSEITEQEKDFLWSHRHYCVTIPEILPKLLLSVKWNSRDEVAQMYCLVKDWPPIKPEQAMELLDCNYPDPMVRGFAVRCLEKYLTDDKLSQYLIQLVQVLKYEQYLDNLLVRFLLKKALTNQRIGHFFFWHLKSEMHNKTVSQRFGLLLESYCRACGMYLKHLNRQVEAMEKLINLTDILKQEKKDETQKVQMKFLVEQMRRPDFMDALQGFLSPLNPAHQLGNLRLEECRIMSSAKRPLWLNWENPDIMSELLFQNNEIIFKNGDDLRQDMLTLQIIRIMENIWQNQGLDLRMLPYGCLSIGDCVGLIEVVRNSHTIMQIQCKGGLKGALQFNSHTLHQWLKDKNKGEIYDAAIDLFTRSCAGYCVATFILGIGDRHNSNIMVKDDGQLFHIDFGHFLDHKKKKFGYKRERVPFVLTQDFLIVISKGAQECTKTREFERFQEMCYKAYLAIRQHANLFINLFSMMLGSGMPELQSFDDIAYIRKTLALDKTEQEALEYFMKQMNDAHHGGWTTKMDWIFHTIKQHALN
PI3Kα (alpha), sequence (P27986 whole entry partner): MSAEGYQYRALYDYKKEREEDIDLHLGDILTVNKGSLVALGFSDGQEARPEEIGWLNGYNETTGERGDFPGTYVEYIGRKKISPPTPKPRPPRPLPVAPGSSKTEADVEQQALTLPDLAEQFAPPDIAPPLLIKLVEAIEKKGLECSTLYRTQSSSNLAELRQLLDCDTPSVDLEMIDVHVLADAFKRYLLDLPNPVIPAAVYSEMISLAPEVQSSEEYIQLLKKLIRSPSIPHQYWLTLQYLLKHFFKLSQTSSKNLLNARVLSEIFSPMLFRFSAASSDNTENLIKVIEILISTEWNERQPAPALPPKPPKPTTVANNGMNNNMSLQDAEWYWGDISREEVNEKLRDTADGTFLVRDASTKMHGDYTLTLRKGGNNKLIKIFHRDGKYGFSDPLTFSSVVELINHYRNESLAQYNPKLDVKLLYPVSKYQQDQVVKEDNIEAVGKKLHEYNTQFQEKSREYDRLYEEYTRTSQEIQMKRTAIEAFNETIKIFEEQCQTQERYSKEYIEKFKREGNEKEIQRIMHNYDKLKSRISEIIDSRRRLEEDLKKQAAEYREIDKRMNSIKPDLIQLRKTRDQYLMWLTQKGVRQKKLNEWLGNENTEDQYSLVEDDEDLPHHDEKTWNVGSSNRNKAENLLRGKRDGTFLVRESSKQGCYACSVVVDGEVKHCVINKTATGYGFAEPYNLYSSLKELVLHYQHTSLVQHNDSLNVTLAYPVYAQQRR
In general terms: In ADP-Glo the light output rises with the ADP produced.

Structures are written as SMILES. Some results are limits rather than exact numbers.

As for `CS(=O)(=O)c1cc(-c2nc3cc(N[C@H](C(N)=O)C4CC4)cc4c3n2CCCO4)ccn1` [Example 159, (S)-2-Cyclopropyl-2-((1-(2-(methylsulfonyl)pyridin-4-yl)-8,9-dihydro-7H-6-oxa-2,9a-diazabenzo[cd]azulen-4-yl)amino)acetamide], the Ki turned out to be 87.2 nM.
Take `Cc1nc2cc(-c3nc4cc(N5CCCC5C(N)=O)cc5c4n3CCCO5)ccc2o1` (stereo not shown) [Example 103, 1-(1-(2-methylbenzo[d]oxazol-5-yl)-8,9-dihydro-7H-6-oxa-2,9a-diazabenzo[cd]azulen-4-yl)pyrrolidine-2-carboxamide]: the Ki turned out to be 16.2 nM.
As to `CC[C@H](C(N)=O)n1cc(-c2cc3c4c(c2)nc(-c2ccc5oc(N)nc5n2)n4CCCCO3)cn1` (single isomer, unassigned) [Example 302], the inhibitory constant (Ki) was 0.102 nM.
For `NC(=O)[C@@H](Nc1cc2c3c(c1)nc(-c1ccc4nc(N)cnc4c1)n3CCCO2)C1CC1` [Example 187, (S)-2-((1-(2-Aminoquinoxalin-6-yl)-8,9-dihydro-7H-6-oxa-2,9a-diazabenzo[cd]azulen-4-yl)amino)-2-cyclopropylacetamide], the Ki was found to be 0.056 nM.
Turning to `COc1ccc(-c2nc3cc(N[C@H](C(N)=O)C4CC4)cc4c3n2CCCO4)c(F)c1` [Example 144, (S)-2-Cyclopropyl-2-((1-(2-fluoro-4-methoxyphenyl)-8,9-dihydro-7H-6-oxa-2,9a-diazabenzo[cd]azulen-4-yl)amino)acetamide], the Ki came out at 340 nM.
Take `C[C@H](Nc1cc2c3c(c1)nc(-c1ccc4oc(N)nc4c1)n3CCCO2)C(N)=O` [Example 105, (S)-2-((1-(2-Aminobenzo[d]oxazol-5-yl)-8,9-dihydro-7H-6-oxa-2,9a-diazabenzo[cd]azulen-4-yl)amino)propanamide]: the Ki was 0.032 nM.
The value for `C[C@H](Nc1cc2c3c(c1)nc(-c1ccncn1)n3CCCO2)C(N)=O` [Example 109, (S)-2-((1-(pyrimidin-4-yl)-8,9-dihydro-7H-6-oxa-2,9a-diazabenzo[cd]azulen-4-yl)amino)propanamide] was 24.3 nM.
In the case of `NC(=O)c1cc(-c2nc3cc(N[C@H](C(N)=O)C4CC4)cc4c3n2CCCO4)ccc1F` [Example 157, (S)-5-(4-((2-Amino-1-cyclopropyl-2-oxoethyl)amino)-8,9-dihydro-7H-6-oxa-2,9a-diazabenzo[cd]azulen-1-yl)-2-fluorobenzamide] it was 16.5 nM; in that of `NC(=O)[C@@H](Nc1cc2c3c(c1)nc(-c1ccc4sc(N)nc4c1)n3CCCO2)C1CC1` [Example 184, (S)-2-((1-(2-Aminobenzo[d]thiazol-5-yl)-8,9-dihydro-7H-6-oxa-2,9a-diazabenzo[cd]azulen-4-yl)amino)-2-cyclopropylacetamide], 0.491 nM.
Turning to `NC(=O)[C@@H](Nc1cc2c3c(c1)nc(-c1ccnc4[nH]cnc14)n3CCCO2)C1CC1` [Example 176, (S)-2-((1-(3H-Imidazo[4,5-b]pyridin-7-yl)-8,9-dihydro-7H-6-oxa-2,9a-diazabenzo[cd]azulen-4-yl)amino)-2-cyclopropylacetamide], the Ki amounted to 326 nM.
For the compound `NC(=O)[C@@H](Nc1cc2c3c(c1)nc(-c1cncnc1)n3CCCO2)C1CC1` [Example 134, (S)-2-Cyclopropyl-2-((1-(pyrimidin-5-yl)-8,9-dihydro-7H-6-oxa-2,9a-diazabenzo[cd]azulen-4-yl)amino)acetamide], the Ki stood at 242 nM.
The value for `CC[C@@H](C(N)=O)n1cc(-c2cc3c4c(c2)nc(-c2ccc5oc(N)nc5c2)n4CCCO3)cn1` [Example 217, (S)-2-(4-(1-(2-Aminobenzo[d]oxazol-5-yl)-8,9-dihydro-7H-6-oxa-2,9a-diazabenzo[cd]azulen-4-yl)-1H-pyrazol-1-yl)butanamide] was 0.298 nM.
In the case of `NC(=O)[C@@H]1CCCN1c1cc2c3c(c1)nc(-c1ccc(-c4cc[nH]n4)cc1)n3CCCO2` [Example 229, (S)-1-(1-(4-(1H-Pyrazol-3-yl)phenyl)-8,9-dihydro-7H-6-oxa-2,9a-diazabenzo[cd]azulen-4-yl)pyrrolidine-2-carboxamide], the inhibition constant (Ki) came out at 6.88 nM.
The value for `NC(=O)[C@@H](Nc1cc2c3c(c1)nc(-c1ccc4sc(N)nc4c1)n3CCCCO2)C1CC1` [Example 246, (S)-2-((1-(2-Aminobenzo[d]thiazol-5-yl)-7,8,9,10-tetrahydro-6-oxa-2,10a-diazacycloocta[cd]inden-4-yl)amino)-2-cyclopropylacetamide] was < 0.02 nM.
As for `NC(=O)[C@@H](Oc1cc2c3c(c1)nc(-c1ccc(-c4ncn[nH]4)c(F)c1)n3CCCCO2)C1CC1` (single isomer, unassigned) [Example 305], the inhibitory constant (Ki) is < 0.02 nM.
The value for `NC(=O)[C@H](Oc1cc2c3c(c1)nc(-c1ccc(-c4ncn[nH]4)c(F)c1)n3CCCCO2)C1CC1` (single isomer, unassigned) [Example 306] was 0.72 nM.
The value for `Nc1nc2cc(-n3nc4cc(Br)cc5c4c3CCCO5)ccc2o1` [Example 253, 5-(4-Bromo-8,9-dihydrooxepino[4,3,2-cd]indazol-1(7H)-yl)benzo[d]oxazol-2-amine] was 50.8 nM; that for `NC(=O)[C@@H](Nc1cc2c3c(c1)nc(-c1ccc4c(c1)C(=O)NC4)n3CCCO2)C1CC1` [Example 115, (S)-2-Cyclopropyl-2-((1-(3-oxoisoindolin-5-yl)-8,9-dihydro-7H-6-oxa-2,9a-diazabenzo[cd]azulen-4-yl)amino)acetamide] was 36.7 nM; that for `N#Cc1cccc(-c2nc3cc(N[C@H](C(N)=O)C4CC4)cc4c3n2CCCO4)c1` [Example 118, (S)-2-((1-(3-Cyanophenyl)-8,9-dihydro-7H-6-oxa-2,9a-diazabenzo[cd]azulen-4-yl)amino)-2-cyclopropylacetamide] was 561 nM.
Consider `Cc1nc2nc(-c3nc4cc(Br)cc5c4n3CCCO5)ccc2o1` [Example 102, 4-bromo-1-(2-methyloxazolo[4,5-b]pyridin-5-yl)-8,9-dihydro-7H-6-oxa-2,9a-diazabenzo[cd]azulene], for which the inhibitory constant (Ki) worked out at 322 nM.
As to `C[C@H](Oc1cc2c3c(c1)nc(-c1ccc(-c4ncn[nH]4)cn1)n3CCCCO2)C(N)=O` [Example 296, (S)-2-((1-(5-(1H-1,2,4-Triazol-5-yl)pyridin-2-yl)-7,8,9,10-tetrahydro-6-oxa-2,10a-diazacycloocta[cd]inden-4-yl)oxy)propanamide], the Ki was < 0.02 nM.
Turning to `C[C@H](Oc1cc2c3c(c1)nc(-c1ccc4nc(N)sc4c1)n3CCCO2)C(N)=O` [Example 274, (S)-2-((1-(2-Aminobenzo[d]thiazol-6-yl)-8,9-dihydro-7H-6-oxa-2,9a-diazabenzo[cd]azulen-4-yl)oxy)propanamide], the Ki amounted to 2.1 nM.
The value for `COC[C@H](Oc1cc2c3c(c1)nc(-c1ccc4nc(N)sc4n1)n3CCCCO2)C(N)=O` (single isomer, unassigned) [Example 315] was < 0.02 nM; that for `C[C@H](Nc1cc2c3c(c1)nc(N1CCC[C@@H](CO)C1)n3CCCO2)C(N)=O` [Example 139, (S)-2-[1-((R)-3-Hydroxymethylpiperidin-1-yl)-8,9-dihydro-7H-6-oxa-2,9a-diazabenzo[cd]azulen-4-ylamino]propionamide] was 288 nM; that for `NC(=O)[C@H](Oc1cc2c3c(c1)nc(-c1ccc4nc(N)sc4c1)n3CCCCO2)C1CC1` (single isomer, unassigned) [Example 282] was 5.53 nM.

Usually Ki stands for the dissociation constant of the complex between target and ligand, obtained from inhibition or displacement.
